Source: the supplement of paper PMC10307832

Assays:
Experiment in all cases: relative viability (nuclei count vs DMSO), 5 days (fraction); higher = more cells survive
201T = test system: 201T
How it was run: (§1)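 Values are medians from duplicate plates. Each reflects relative viability, defined as the nuclei count of treated wells over that of vehicle wells. Lung cancer cell lines in 1536-well plates were pin-tool dosed one day after seeding with one drug alone or with a fixed anchor-drug dose plus five library-drug doses (not always all listed) in √10 steps, then fixed, stained and imaged at 4× after 5 days.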

A-427 = test system: A-427
How it was run: as §1

ABC-1 = test system: ABC-1
How it was run: as §1

BEN = test system: BEN
How it was run: as §1

CAL-12T = test system: CAL-12T
How it was run: as §1

H3255 = test system: H3255
How it was run: as §1

LC-2-ad = test system: LC-2-ad
How it was run: as §1

LCLC-97TM1 = test system: LCLC-97TM1
How it was run: as §1

NCI-H1650 = test system: NCI-H1650
How it was run: as §1

NCI-H1651 = test system: NCI-H1651
How it was run: as §1

NCI-H1792 = test system: NCI-H1792
How it was run: as §1

NCI-H1915 = test system: NCI-H1915
How it was run: as §1

NCI-H1944 = test system: NCI-H1944
How it was run: as §1

NCI-H2023 = test system: NCI-H2023
How it was run: as §1

NCI-H2087 = test system: NCI-H2087
How it was run: as §1

NCI-H441 = test system: NCI-H441
How it was run: as §1

NCI-H460 = test system: NCI-H460
How it was run: as §1

NCI-H520 = test system: NCI-H520
How it was run: as §1

NCI-H596 = test system: NCI-H596
How it was run: as §1

NCI-H650 = test system: NCI-H650
How it was run: as §1

NCI-H661 = test system: NCI-H661
How it was run: as §1

NCI-H727 = test system: NCI-H727
How it was run: as §1

PC-3 [JPC-3] = test system: PC-3 [JPC-3]
How it was run: as §1

## O=C(O)c1ccc(-c2c[nH]c3ncc(-c4ccccc4)cc23)cc1C1CCCC1 + COc1cccc2cc(-c3nc([C@H]4CC[C@H](C(=O)O)CC4)n4ncnc(N)c34)[nH]c12 [OSI-027] (partner 0.5 µM)
201T; first compound 0.04 µM
  relative viability: 0.693
201T; first compound 0.1265 µM
  relative viability: 0.682
201T; first compound 1.265 µM
  relative viability: 0.716
A-427; first compound 0.04 µM
  relative viability: 0.48
A-427; first compound 0.1265 µM
  relative viability: 0.54
A-427; first compound 0.4 µM
  relative viability: 0.418
A-427; first compound 1.265 µM
  relative viability: 0.493
ABC-1; first compound 0.04 µM
  relative viability: 0.468
ABC-1; first compound 0.1265 µM
  relative viability: 0.511
ABC-1; first compound 0.4 µM
  relative viability: 0.418
ABC-1; first compound 1.265 µM
  relative viability: 0.568
BEN; first compound 0.04 µM
  relative viability: 0.329
BEN; first compound 0.1265 µM
  relative viability: 0.269
BEN; first compound 0.4 µM
  relative viability: 0.307
BEN; first compound 1.265 µM
  relative viability: 0.284
CAL-12T; first compound 0.04 µM
  relative viability: 0.63
CAL-12T; first compound 0.1265 µM
  relative viability: 0.751
CAL-12T; first compound 0.4 µM
  relative viability: 0.671
CAL-12T; first compound 1.265 µM
  relative viability: 0.547
H3255; first compound 0.04 µM
  relative viability: 0.671
H3255; first compound 0.1265 µM
  relative viability: 0.662
H3255; first compound 0.4 µM
  relative viability: 0.554
H3255; first compound 1.265 µM
  relative viability: 0.506
LC-2-ad; first compound 0.04 µM
  relative viability: 0.805
LC-2-ad; first compound 0.1265 µM
  relative viability: 0.905
LC-2-ad; first compound 0.4 µM
  relative viability: 0.757
LC-2-ad; first compound 1.265 µM
  relative viability: 0.68
LCLC-97TM1; first compound 0.04 µM
  relative viability: 0.474
LCLC-97TM1; first compound 0.1265 µM
  relative viability: 0.659
LCLC-97TM1; first compound 0.4 µM
  relative viability: 0.518
LCLC-97TM1; first compound 1.265 µM
  relative viability: 0.526
NCI-H1650; first compound 0.04 µM
  relative viability: 0.544
NCI-H1650; first compound 0.1265 µM
  relative viability: 0.624
NCI-H1650; first compound 0.4 µM
  relative viability: 0.624
NCI-H1650; first compound 1.265 µM
  relative viability: 0.394
NCI-H1651; first compound 0.04 µM
  relative viability: 0.659
NCI-H1651; first compound 0.1265 µM
  relative viability: 0.715
NCI-H1651; first compound 0.4 µM
  relative viability: 0.67
NCI-H1651; first compound 1.265 µM
  relative viability: 0.583
NCI-H1792; first compound 0.1265 µM
  relative viability: 0.908
NCI-H1792; first compound 0.4 µM
  relative viability: 0.698
NCI-H1792; first compound 1.265 µM
  relative viability: 0.696
NCI-H1915; first compound 0.04 µM
  relative viability: 0.629
NCI-H1915; first compound 0.1265 µM
  relative viability: 0.638
NCI-H1915; first compound 0.4 µM
  relative viability: 0.604
NCI-H1915; first compound 1.265 µM
  relative viability: 0.545
NCI-H1944; first compound 0.04 µM
  relative viability: 0.429
NCI-H1944; first compound 0.1265 µM
  relative viability: 0.428
NCI-H1944; first compound 0.4 µM
  relative viability: 0.345
NCI-H1944; first compound 1.265 µM
  relative viability: 0.39
NCI-H2023; first compound 0.04 µM
  relative viability: 0.516
NCI-H2023; first compound 0.1265 µM
  relative viability: 0.572
NCI-H2023; first compound 0.4 µM
  relative viability: 0.41
NCI-H2023; first compound 1.265 µM
  relative viability: 0.319
NCI-H2087; first compound 0.04 µM
  relative viability: 0.563
NCI-H2087; first compound 0.1265 µM
  relative viability: 0.673
NCI-H2087; first compound 0.4 µM
  relative viability: 0.416
NCI-H2087; first compound 1.265 µM
  relative viability: 0.47
NCI-H441; first compound 0.04 µM
  relative viability: 0.675
NCI-H441; first compound 0.1265 µM
  relative viability: 0.567
NCI-H441; first compound 0.4 µM
  relative viability: 0.571
NCI-H441; first compound 1.265 µM
  relative viability: 0.466
NCI-H460; first compound 0.04 µM
  relative viability: 0.645
NCI-H460; first compound 0.1265 µM
  relative viability: 0.75
NCI-H460; first compound 0.4 µM
  relative viability: 0.683
NCI-H460; first compound 1.265 µM
  relative viability: 0.511
NCI-H520; first compound 0.04 µM
  relative viability: 0.23
NCI-H520; first compound 0.1265 µM
  relative viability: 0.269
NCI-H520; first compound 0.4 µM
  relative viability: 0.336
NCI-H520; first compound 1.265 µM
  relative viability: 0.242
NCI-H596; first compound 0.04 µM
  relative viability: 0.728
NCI-H596; first compound 0.1265 µM
  relative viability: 0.733
NCI-H596; first compound 0.4 µM
  relative viability: 0.833
NCI-H596; first compound 1.265 µM
  relative viability: 0.654
NCI-H650; first compound 0.04 µM
  relative viability: 0.522
NCI-H650; first compound 0.1265 µM
  relative viability: 0.6
NCI-H650; first compound 0.4 µM
  relative viability: 0.485
NCI-H650; first compound 1.265 µM
  relative viability: 0.457
NCI-H661; first compound 0.04 µM
  relative viability: 0.766
NCI-H661; first compound 0.4 µM
  relative viability: 0.718
NCI-H661; first compound 1.265 µM
  relative viability: 0.734
NCI-H727; first compound 0.04 µM
  relative viability: 0.678
NCI-H727; first compound 0.1265 µM
  relative viability: 0.672
NCI-H727; first compound 0.4 µM
  relative viability: 0.887
NCI-H727; first compound 1.265 µM
  relative viability: 0.667
PC-3 [JPC-3]; first compound 0.04 µM
  relative viability: 0.784
PC-3 [JPC-3]; first compound 0.1265 µM
  relative viability: 0.792
PC-3 [JPC-3]; first compound 0.4 µM
  relative viability: 0.82
PC-3 [JPC-3]; first compound 1.265 µM
  relative viability: 0.655
